A word on the MIC: it is the least concentration at which growth counts as inhibited.

4 compounds from ChEMBL document CHEMBL4715829, “Heterodimeric Rifampicin-Tobramycin conjugates break intrinsic resistance of Pseudomonas aeruginosa to doxycycline and chloramphenicol in vitro and in a Galleria mellonella in vivo model” (Eur J Med Chem, 2019) can be followed below.

Data set [1] concerns Pseudomonas aeruginosa. Kind of data set: Antibacterial activity against Pseudomonas aeruginosa 260-97103 assessed as fractional inhibitory concentration incubated for 18 hrs in presence of chloramphenicol by broth microdilution assay. Type of data set: functional.
Data set [2] relates to Pseudomonas aeruginosa. In words: Antibacterial activity against Pseudomonas aeruginosa 259-96918 assessed as reduction in bacterial growth by measuring doxycycline MIC at 8 ug/ml incubated for 18 hrs in presence of doxycycline by broth microdilution assay (reference value: 32 ug/ml). In kind it is functional. To be noted: dose 8 µg/ml. (In broth dilution the organism is exposed to a series of concentrations in liquid medium.)

Data set [3] relates to Pseudomonas aeruginosa. Kind of data set: Antibacterial activity against Pseudomonas aeruginosa 259-96918 assessed as reduction in bacterial growth by measuring chloramphenicol MIC at 8 ug/ml incubated for 18 hrs in presence of chloramphenicol by broth microdilution assay (reference value: 1024 ug/ml). In kind it is functional. To be noted: dose 8 µg/ml.
The test system of data set [4] is Pseudomonas aeruginosa. Kind of data set: Antibacterial activity against wild type Pseudomonas aeruginosa PAO1 assessed as reduction in bacterial growth by measuring chloramphenicol MIC at 8 ug/ml incubated for 18 hrs in presence of chloramphenicol by broth microdilution assay (reference value: 32 ug/ml). Type of data set: functional. To be noted: dose 8 µg/ml.

For data set [5], the system named is Pseudomonas aeruginosa. In words: Antibacterial activity against Pseudomonas aeruginosa 259-96918 assessed as reduction in bacterial growth by measuring chloramphenicol MIC at 2 ug/ml incubated for 18 hrs in presence of chloramphenicol by broth microdilution assay (reference value: 1024 ug/ml). As to conditions: dose 2 µg/ml. Type of data set: functional.
Data set [6] relates to Pseudomonas aeruginosa. Kind of data set: Antibacterial activity against Pseudomonas aeruginosa 101885 assessed as fractional inhibitory concentration index incubated for 18 hrs in presence of minocycline by broth microdilution assay. In kind it is functional.
For data set [7], the system named is Pseudomonas aeruginosa. In words: Antibacterial activity against Pseudomonas aeruginosa 114228 assessed as fractional inhibitory concentration index incubated for 18 hrs in presence of minocycline by broth microdilution assay. Type of data set: functional.
Data set [8] concerns Pseudomonas aeruginosa. Kind of data set: Antibacterial activity against Pseudomonas aeruginosa 264-101354 assessed as fractional inhibitory concentration incubated for 18 hrs in presence of minocycline by broth microdilution assay. In kind it is functional.
Data set [9] relates to Pseudomonas aeruginosa. Kind of data set: Antibacterial activity against Pseudomonas aeruginosa 259-96918 assessed as potentiation of chloramphenicol-induced antibacterial activity by measuring chloramphenicol MIC at 9.8 uM incubated for 18 hrs in presence of chloramphenicol by broth microdilution assay (reference value: 1024 ug/ml). In kind it is functional.
The subject of data set [10] is Pseudomonas aeruginosa. In words: Antibacterial activity against Pseudomonas aeruginosa 101243 assessed as potentiation of doxycycline-induced antibacterial activity by measuring doxycycline MIC at 9.8 uM incubated for 18 hrs in presence of doxycycline by broth microdilution assay (reference value: 4 ug/ml). In kind it is functional.
In data set [11] the test system is Pseudomonas aeruginosa. Kind of data set: Antibacterial activity against Pseudomonas aeruginosa 260-97103 infected in Galleria mellonella larvae assessed as survival of larvae at 75 mg/kg treated at 3 hrs post-infection in presence of chloramphenicol and measured after 18 hrs relative to control. Type of data set: functional.
In data set [12] the test system is Escherichia coli. In words: Potentiation of chloramphenicol-induced antibacterial activity against Escherichia coli ATCC 25922 assessed as fold change in chloramphenicol MIC at 9.8 uM incubated for 18 hrs in presence of chloramphenicol by broth microdilution assay relative to control. Type of data set: functional.
Data set [13] has as its system Pseudomonas aeruginosa. In words: Antibacterial activity against Pseudomonas aeruginosa 100036 assessed as fractional inhibitory concentration incubated for 18 hrs in presence of tigecycline by broth microdilution assay. In kind it is functional.
Another data set has as its system HEK293. Kind of data set: Cytotoxicity against human HEK293 cells assessed as cell viability at 50 uM incubated for 48 hrs in presence of doxycycline by prestoblue assay. Type of data set: cell-based. As to conditions: hek293, 48 h.
The subject of data set [14] is Pseudomonas aeruginosa. Kind of data set: Antibacterial activity against Pseudomonas aeruginosa 264-101354 assessed as fractional inhibitory concentration index incubated for 18 hrs in presence of tigecycline by broth microdilution assay. In kind it is functional.
Data set [15] deals with Pseudomonas aeruginosa. In words: Antibacterial activity against Pseudomonas aeruginosa 262-101856 assessed as fractional inhibitory concentration index incubated for 18 hrs in presence of minocycline by broth microdilution assay. Type of data set: functional.
Data set [16] concerns Pseudomonas aeruginosa. In words: Potentiation of chloramphenicol-induced antibacterial activity against Pseudomonas aeruginosa 100036 assessed as fold change in chloramphenicol MIC at 9.8 uM incubated for 18 hrs in presence of chloramphenicol by broth microdilution assay relative to control. Type of data set: functional.
A further data set has as its system Klebsiella pneumoniae. Kind of data set: Potentiation of chloramphenicol-induced antibacterial activity against Klebsiella pneumoniae ATCC 16381 assessed as fold change in chloramphenicol MIC at 9.8 uM incubated for 18 hrs in presence of chloramphenicol by broth microdilution assay relative to control. Type of data set: functional.
In data set [17] the test system is Pseudomonas aeruginosa. In words: Antibacterial activity against Pseudomonas aeruginosa 264-101354 assessed as fractional inhibitory concentration index incubated for 18 hrs in presence of minocycline by broth microdilution assay. In kind it is functional.
Data set [18] relates to Pseudomonas aeruginosa. In words: Antibacterial activity against Pseudomonas aeruginosa 114228 assessed as potentiation of chloramphenicol-induced antibacterial activity by measuring chloramphenicol MIC at 9.8 uM incubated for 18 hrs in presence of chloramphenicol by broth microdilution assay (reference value: 64 ug/ml). In kind it is functional.
The nature of data set [19]: Toxicity in Galleria mellonella larvae assessed as larval survival at 100 mg/kg measured after 96 hrs. In kind it is organism-based. To be noted: in vivo.
Data set [20] has as its system Pseudomonas aeruginosa. In words: Antibacterial activity against Pseudomonas aeruginosa 101885 assessed as fractional inhibitory concentration incubated for 18 hrs in presence of tigecycline by broth microdilution assay. Type of data set: functional.
Data set [21] has as its system Pseudomonas aeruginosa. In words: Potentiation of chloramphenicol-induced antibacterial activity against Pseudomonas aeruginosa 114228 assessed as fold change in chloramphenicol MIC at 7.6 uM incubated for 18 hrs in presence of chloramphenicol by broth microdilution assay relative to control. Type of data set: functional.
The test system of the next data set is Acinetobacter baumannii. In words: Potentiation of doxycycline-induced antibacterial activity against Acinetobacter baumannii ATCC 17978 assessed as fold change in doxycycline MIC at 7.6 uM incubated for 18 hrs in presence of doxycycline by broth microdilution assay relative to control. In kind it is functional.
The test system of data set [22] is Pseudomonas aeruginosa. In words: Antibacterial activity against Pseudomonas aeruginosa 114228 assessed as potentiation of chloramphenicol-induced antibacterial activity by measuring chloramphenicol MIC at 7.6 uM incubated for 18 hrs in presence of chloramphenicol by broth microdilution assay (reference value: 64 ug/ml). Type of data set: functional.
Data set [23] deals with Pseudomonas aeruginosa. In words: Potentiation of doxycycline-induced antibacterial activity against Pseudomonas aeruginosa 260-97103 assessed as fold change in doxycycline MIC at 7.6 uM incubated for 18 hrs in presence of doxycycline by broth microdilution assay relative to control. In kind it is functional.
In data set [24] the test system is Pseudomonas aeruginosa. In words: Antibacterial activity against Pseudomonas aeruginosa 259-96918 assessed as potentiation of doxycycline-induced antibacterial activity by measuring doxycycline MIC at 7.6 uM incubated for 18 hrs in presence of doxycycline by broth microdilution assay (reference value: 32 ug/ml). Type of data set: functional.
Data set [25] relates to Pseudomonas aeruginosa. In words: Potentiation of chloramphenicol-induced antibacterial activity against Pseudomonas aeruginosa 259-96918 assessed as fold change in chloramphenicol MIC at 7.6 uM incubated for 18 hrs in presence of chloramphenicol by broth microdilution assay relative to control. In kind it is functional.
Data set [26] deals with Pseudomonas aeruginosa. In words: Potentiation of doxycycline-induced antibacterial activity against Pseudomonas aeruginosa 100036 assessed as fold change in doxycycline MIC at 7.6 uM incubated for 18 hrs in presence of doxycycline by broth microdilution assay relative to control. In kind it is functional.
In data set [27] the test system is Escherichia coli. In words: Potentiation of chloramphenicol-induced antibacterial activity against Escherichia coli ATCC 25922 assessed as fold change in chloramphenicol MIC at 7.6 uM incubated for 18 hrs in presence of chloramphenicol by broth microdilution assay relative to control. In kind it is functional.

In the case of `NC[C@H]1O[C@H](O[C@H]2[C@H](O)[C@@H](O[C@H]3O[C@H](CO)[C@@H](O)[C@H](N)[C@H]3O)[C@H](N)C[C@@H]2N)[C@H](N)C[C@@H]1O` [TOBRAMYCIN], the FIC with Pseudomonas aeruginosa [1] was found to be 0.5. Also, the values for the MIC in the data set on Pseudomonas aeruginosa [2] and with Pseudomonas aeruginosa [3] were 32 µg/mL and 1020 µg/mL, respectively.

Consider `CO[C@H]1/C=C/O[C@@]2(C)Oc3c(C)c(O)c4c(O)c(c(/C=N/N5CCN(C)CC5)c(O)c4c3C2=O)NC(=O)/C(C)=C\C=C\[C@H](C)[C@H](O)[C@@H](C)[C@@H](O)[C@@H](C)[C@H](OC(C)=O)[C@@H]1C` [RIFAMPIN], for which the MIC was 32 µg/mL with Pseudomonas aeruginosa [4] and 1020 µg/mL with Pseudomonas aeruginosa [5].

With `CO[C@H]1/C=C/O[C@@]2(C)Oc3c(C)c(O)c4c(O)c(c(/C=N/N5CCN(Cc6cn(CCCCCCO[C@@H]7[C@@H](O[C@H]8O[C@H](CO)[C@@H](O)[C@H](N)[C@H]8O)[C@H](N)C[C@H](N)[C@H]7O[C@H]7O[C@H](CN)[C@@H](O)C[C@H]7N)nn6)CC5)c(O)c4c3C2=O)NC(=O)/C(C)=C\C=C\[C@H](C)[C@H](O)[C@@H](C)[C@@H](O)[C@@H](C)[C@H](OC(C)=O)[C@@H]1C.Cl.Cl.Cl.Cl.Cl`, the “fractional inhibitory concentration index (FICI)” value was 0.13 with Pseudomonas aeruginosa [6]; below 0.28 with Pseudomonas aeruginosa [7]; 0.19 in the data set on Pseudomonas aeruginosa [14]; below 0.09 in the data set with Pseudomonas aeruginosa [15]; 0.08 with Pseudomonas aeruginosa [17]. For the same compound, the FIC in the data set on Pseudomonas aeruginosa [8] is listed as 0.063; in the data set on Pseudomonas aeruginosa [13], 0.004; with Pseudomonas aeruginosa [20] it was 0.063. In addition, the MIC in the data set with Pseudomonas aeruginosa [9] came out at 256 µg/mL; with Pseudomonas aeruginosa [10], 0.25 µg/mL; with Pseudomonas aeruginosa [18], 16 µg/mL. Besides, in the data set with Pseudomonas aeruginosa [11], the survival at 75 mg/kg was determined as 55%. The figures for the “fold change (FC)” value with Escherichia coli [12], in the data set with Pseudomonas aeruginosa [16] and with Klebsiella pneumoniae were 0, 4 and 0, respectively. In addition, the Activity entry with HEK293 was “Non-Toxic”. The survival at 96 h in data set [19] turned out to be 100%.

As for `CO[C@H]1/C=C/O[C@@]2(C)Oc3c(C)c(O)c4c(O)c(c(/C=N/N5CCN(Cc6cn(CCCCCCCCCCCCO[C@@H]7[C@@H](O[C@H]8O[C@H](CO)[C@@H](O)[C@H](N)[C@H]8O)[C@H](N)C[C@H](N)[C@H]7O[C@H]7O[C@H](CN)[C@@H](O)C[C@H]7N)nn6)CC5)c(O)c4c3C2=O)NC(=O)/C(C)=C\C=C\[C@H](C)[C@H](O)[C@@H](C)[C@@H](O)[C@@H](C)[C@H](OC(C)=O)[C@@H]1C.O=C(O)C(F)(F)F.O=C(O)C(F)(F)F.O=C(O)C(F)(F)F.O=C(O)C(F)(F)F.O=C(O)C(F)(F)F`, the “fold change (FC)” value in the data set on Pseudomonas aeruginosa [21] is 4; in the data set on Acinetobacter baumannii, 0; with Pseudomonas aeruginosa [23], 4; in the data set with Pseudomonas aeruginosa [25] it was 4; in the data set on Pseudomonas aeruginosa [26], 4; in the data set with Escherichia coli [27], 0. Further, the MIC with Pseudomonas aeruginosa [22] was determined as 8 µg/mL; in the data set with Pseudomonas aeruginosa [24], 0.25 µg/mL.
